Data set [1] addresses T1, Estrogen Receptor α LBD (ERα) (Homo sapiens, UniProt P03372).
T1 construct: 2 nM biotinylated Estrogen Receptor α LBD (ERα) was incubated; biotin (biotinylated)
T1 sequence (P03372 311-547 limits assumed): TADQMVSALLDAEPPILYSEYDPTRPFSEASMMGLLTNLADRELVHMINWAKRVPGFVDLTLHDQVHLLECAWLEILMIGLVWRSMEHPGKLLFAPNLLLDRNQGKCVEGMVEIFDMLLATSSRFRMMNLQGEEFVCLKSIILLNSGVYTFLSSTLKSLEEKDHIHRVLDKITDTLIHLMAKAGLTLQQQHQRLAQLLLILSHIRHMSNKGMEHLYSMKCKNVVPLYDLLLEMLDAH
The data set can be described thus: Competitive ligand binding assay with [3H]-E2. Conditions: 10 nM [3H]-E2 tracer, 2 nM biotinylated ERα LBD; representative experiment. Here is the method:
Experimental data points are mean + /− s.e.m. of triplicate samples in a representative experiment. […] Experimental data points are mean + /− s.d. of triplicate samples in a representative experiment
Triplicate reactions were vortexed and 100 μL was added in triplicate to a 96-well streptavidin flashplate (Perkin Elmer #SMP103001PK), which incubated overnight at 4 °C prior to reading.

Data set [2] is described as follows: Pharmacokinetics in mouse plasma at conclusion of xenograft study. It is filed as in vivo.
Another data set addresses T2, wild type ERα (Homo sapiens, UniProt P03372).
T2 construct: expressed in transfected cells; host or cells: HeLa
T2 sequence (P03372 1-595): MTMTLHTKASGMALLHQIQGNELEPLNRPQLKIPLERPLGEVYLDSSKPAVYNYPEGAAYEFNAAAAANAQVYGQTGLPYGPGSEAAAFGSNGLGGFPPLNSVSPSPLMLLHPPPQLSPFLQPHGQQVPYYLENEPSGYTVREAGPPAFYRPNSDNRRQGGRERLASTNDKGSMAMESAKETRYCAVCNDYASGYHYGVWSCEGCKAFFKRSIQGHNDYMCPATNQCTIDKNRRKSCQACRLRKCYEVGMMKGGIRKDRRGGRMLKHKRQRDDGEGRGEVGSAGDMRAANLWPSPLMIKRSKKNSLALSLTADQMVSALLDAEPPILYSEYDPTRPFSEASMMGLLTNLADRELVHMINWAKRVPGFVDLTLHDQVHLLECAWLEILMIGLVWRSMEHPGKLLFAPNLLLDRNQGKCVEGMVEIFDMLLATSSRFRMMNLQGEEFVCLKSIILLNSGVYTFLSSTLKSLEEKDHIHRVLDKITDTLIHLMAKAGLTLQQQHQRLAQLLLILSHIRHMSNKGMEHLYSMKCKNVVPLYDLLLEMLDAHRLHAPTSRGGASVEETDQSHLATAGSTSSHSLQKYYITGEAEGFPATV
The data set can be described thus: ERE3X-TATA-Luc reporter in HeLa cells transfected with ERα. It is filed as cell-based. The following applies: 1 nM E2, 22 h, read-out: IC50 inhibition of E2-stimulated ERα transcriptional activity. The source says:
Supplementary Figure 2: Specificity of OP-1074
Supplementary Figure 2. OP-1074 is specific for ERα and ERβ. A, OP-1074 inhibits E2-stimulated ERα and ERβ mediated transcription. HeLa cells were transfected with an estrogen responsive reporter gene, ERE3X-TATA-Luc, along with wild type ERα or ERβ, and treated […]
Shown is the mean luciferase activity
Luciferase activity (% Dex)
Luciferase activity (% MPA)
Luciferase activity (% R1881)
(1 picture or pasted object on this page, not shown here) […]
representative experiment. […]
receptor (AR, (B)), glucocorticoid receptor (GR, (C)), and the B-isoform of the progesterone receptor (PR-B, (D)). HeLa cells were transfected with the designated wild type receptor along with reporter gene PRE3X-TATA-Luc, which is promiscuously activated with known agonists specific for each receptor: R1881 for AR, dexamethasone (Dex) for GR, and medroxyprogesterone acetate (MPA) for PR-B. Each receptor was also dosed with one concentration of known antagonist for each receptor: 32 nM bicalutamide for AR, and 500 nM RU486 for GR and PR. Transfected cells were treated with the designated ligands for 22 hours and luciferase activity assayed. Shown are representative experiments, independently performed at least 3 times. Note that curves for agonists for each receptor were performed in separate experiments. […]

A further data set concerns the target T3, ERα (Homo sapiens, UniProt P03372).
T3 construct: endogenous in cells
T3 sequence (P03372 1-595): T2 sequence (P03372 1-595)
In words: ERα protein levels by immunoblotting. It is filed as cell-based. The following applies: MCF-7 cells, 100 nM ligand, 24 h, means of n experiments ±s.d. Here is the method:
However, it is conceivable that under some clinical contexts SERD activity may still be a desirable feature by reducing the number of functional receptors in tumors.
Imaging was performed on FluorChem Imager by Alpha Innotech. […] An uncropped image of the immunoblot is shown in Supplementary Fig. 5.

Data set [3] concerns AP activity in Ishikawa uterine cells. In words: Alkaline phosphatase (AP) assay, agonist mode (absence of E2). It is filed as cell-based, human. Here is the method:
Our primary screen to distinguish pure antiestrogens from SERMs was induction of alkaline phosphatase (AP) activity in Ishikawa uterine cells. […] The reference SERM used in our screen was endoxifen (N-desmethyl-4-hydroxytamoxifen), the most abundant bioactive metabolite of tamoxifen.
Shown is a representative figure analyzed and presented as above.
At least 4 h later cells were treated with antiestrogens and media was diluted to 2.5% stripped FBS. Cells were incubated for 3 days, media removed and plates frozen at −80 °C. Thawed plates were incubated with a chromogenic substrate of AP, p-nitrophenyl phosphate (ThermoFisher Scientific, #36721), for 40–60 min at 40 °C, and absorbance read at 405 nm on the Varioskan Lux multimodal plate reader (ThermoFisher Scientific, #VLBL00D0).

Setting [4] is: female, athymic nude, mouse plasma, final dose, 100 mg/kg oral gavage twice daily.

Values joined by “and” are separate entries in the source; they are usually repeats but may differ in a detail not shown here. Equal entries are not always repeated. Where two headings read alike, the source gives them in different places.

As a reminder, the IC50 is the concentration at which inhibition is half-maximal. What is called Cmax is the peak of the concentration-time curve. The term AUC denotes concentration integrated over time. Lower therefore signals less exposure. By Tmax is commonly meant the time at which the peak concentration occurs. Usually half-life stands for the time in which the quantity being followed falls by half. Low readings indicate fast loss, high ones slow loss. Take `CC1=C(c2ccc(O)cc2)[C@H](c2ccc(OCCN3CC[C@@H](C)C3)cc2)Oc2cc(O)ccc21` [OP-1074]: the IC50 in data set [1] is 7 nM and 7.03 nM; on wild type ERα, 1.6 nM and 1.7 nM. In addition, the Cmax in data set [2] (female, athymic nude, oral, 100 mg/kg, mouse plasma, final dose, over a 24-h period, read-out: Cmax (Fig. 7c)) was 1280 ng/mL; in data set [2] (female, athymic nude, mouse plasma, final dose, 100 mg/kg oral gavage twice daily, read-out: Cmax) it was 1300 ng/mL. In data set [2] (setting [4]), this compound yielded an AUC of 8200 ng·h/mL. Moreover, the Tmax in data set [2] (setting [4]) is 1.5 h. Further, the half-life in data set [2] (setting [4]) was 3.01 h. In addition, the “Oral bioavailability” value in data set [2] (mouse, 100 mg/kg oral gavage twice daily) was “good oral bioavailability”. The “Relative ERα protein levels (% vehicle)” value at ERα was 49 % vehicle and 49% ± 13 (n = 15) % vehicle. In addition, in data set [3] (3 days, absence of E2, normalized to 500 pM E2, representative experiment (Fig. 2a)), the “Maximal AP activity in agonist mode relative to E2 control” value worked out at 8%. For the same compound, in data set [3] (Maximum AP activity observed relative to positive control, 500 pM E2, means of n independent experiments ±s.d.), the “Induction of AP activity (% E2)” value was 10% ± 4.4 (n = 29) % E2.

The record behind these values is publication PMC6006285, “Specific stereochemistry of OP-1074 disrupts estrogen receptor alpha helix 12 and confers pure antiestrogenic activity” (Nature Communications, 2018).
